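In this assay, cells in 96-well plates receive the compound at five concentrations for 48 hours. Endpoints are linearly interpolated between the surrounding concentrations. TGI: total growth inhibition.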
What was measured:
Assay in all cases: NCI anticancer screen, dose series, 48 h
CCRF-CEM leukemia = test system: CCRF-CEM leukemia
HOP-62 NSCLC = test system: HOP-62 NSCLC
PC-3 prostate = test system: PC-3 prostate
MCF7 breast = test system: MCF7 breast
NCI-H522 lung = test system: NCI-H522 lung
SK-MEL-5 melanoma = test system: SK-MEL-5 melanoma
NCI-H460 lung = test system: NCI-H460 lung
OVCAR-8 ovarian = test system: OVCAR-8 ovarian
A498 renal = test system: A498 renal
A549 NSCLC = test system: A549 NSCLC
HL-60(TB) leukemia = test system: HL-60(TB) leukemia
OVCAR-5 ovarian = test system: OVCAR-5 ovarian
EKVX NSCLC = test system: EKVX NSCLC
MALME-3M melanoma = test system: MALME-3M melanoma
SF-268 CNS = test system: SF-268 CNS
SW-620 colon = test system: SW-620 colon
TK-10 renal = test system: TK-10 renal
MDA-N = test system: MDA-N
HCT-15 colon = test system: HCT-15 colon
RXF 393 renal = test system: RXF 393 renal

SMILES | TGI (CCRF-CEM leukemia) | TGI (HOP-62 NSCLC) | TGI (PC-3 prostate) | TGI (MCF7 breast) | TGI (NCI-H522 lung) | TGI (SK-MEL-5 melanoma) | TGI (NCI-H460 lung) | TGI (OVCAR-8 ovarian) | TGI (A498 renal) | TGI (A549 NSCLC) | TGI (HL-60(TB) leukemia) | TGI (OVCAR-5 ovarian) | TGI (EKVX NSCLC) | TGI (MALME-3M melanoma) | TGI (SF-268 CNS) | TGI (SW-620 colon) | TGI (TK-10 renal) | TGI (MDA-N) | TGI (HCT-15 colon) | TGI (RXF 393 renal)
OCC1COc2cc(Cl)c(Cl)cc2O1 (centres undefined) | > 10 µM | > 10 µM | > 10 µM | > 10 µM | > 10 µM | > 10 µM | > 10 µM | > 10 µM | > 10 µM | > 10 µM | > 10 µM | > 10 µM | > 10 µM | > 10 µM | > 10 µM | > 10 µM | > 10 µM | > 10 µM | > 10 µM | > 10 µM
COc1cc(C2c3cc4c(cc3[C@@H](Nc3cccc(CO)c3)C3COC(=O)[C@H]23)OCO4)cc(OC)c1O (some centres undefined) | 0.732 µM | 0.556 µM |  | 26.3 µM | 3.52 µM | 2.28 µM | 1.75 µM | 16.2 µM | 1.77 µM | 1.96 µM | 0.343 µM | 11.5 µM | 19.8 µM | 11.4 µM | 14.5 µM | > 41.3 µM |  |  | 2.86 µM | 6.05 µM
O=c1[nH]nc(NCc2ccccc2)c2nnn(Cc3ccccc3)c12 | > 100 µM | > 100 µM | > 100 µM | > 100 µM |  | > 100 µM | > 100 µM | > 100 µM |  | > 100 µM | > 100 µM | > 100 µM | > 100 µM | > 100 µM |  |  | > 100 µM | > 100 µM | > 100 µM | 
C=CCN1/C(=C(\C#N)c2nc3ccccc3[nH]2)Sc2c1nc[nH]c2=O | > 100 µM | > 100 µM |  |  | > 100 µM | > 100 µM | > 100 µM | > 100 µM | > 100 µM | > 100 µM | > 100 µM | > 100 µM | > 100 µM | > 100 µM | > 100 µM | > 100 µM | > 100 µM |  | > 100 µM | > 100 µM
COc1nc2cccc(C(O)c3ccccc3)c2nc1-c1ccccc1 (centres undefined) | 10.8 µM | 19.1 µM | 65.5 µM | 32 µM | 27.2 µM | 13.1 µM | 24.8 µM | > 100 µM | 11.7 µM | 54.5 µM | 18 µM | 54.8 µM | 41.9 µM | > 100 µM | 33.4 µM | 16.6 µM | > 100 µM | 5.17 µM | 26.5 µM | 14.6 µM
